These results are taken from patent US20240166702A1, “COMPOSITIONS AND METHODS FOR TREATING BREAST CANCER” (Arizona Board of Regents on Behalf of The University of …, priority 2021, published 2024).

For one data set, the system named is MCF10A cells. It is filed as cell-based.
The test system of data set [1] is BT20 cells. It is filed as cell-based, human. On the procedure:
(§1) B. MDA-MD-468 cells were transduced with an IPTG inducible shEGFR targeted against the 3′ UTR of EGFR. These cells were incubated with IPTG for the indicated number of days and lysates were generated to confirm knock down of EGFR. C. In tandem with B., cells were plated and incubated +/−IPTG for 2 days prior to drug treatment. […] After 5 days of IPTG and 3 days of peptide treatment viability was measured using an MTT assay.
To investigate rt-EGFR, the role of the Sorting Nexins to regulate EGFR trafficking to the lysosome for degradation was investigated. To determine if SNX1 domains could be therapeutically mimicked, three SNX1-based peptides were synthesized, each of which was generated in tandem with a Cell Penetrating Peptide domain (PTD-4) to allow for intracellular penetration^19 (SNX1.1, 1.2 and 1.3, FIG. 2A). The ability of each peptide to reduce cell survival in the triple negative breast cancer cell line BT20 was evaluated.
(§2) EGFR activity is known to promote the activity of other RTKs, including those in the EGFR family (HER2, HER3 and HER4) and the c-Met receptor (Puri and Salgia 2008; Linklater et al. 2016). Therefore, the ability of SNX1.3 to inhibit 2D migration was next evaluated, both in response to EGF as well as other migration-inducing ligands. […] Cells were plated on plastic and allowed to migrate into an artificial wound over 12 hours. […] To determine if this inhibitory effect was restricted to EGF-induced migration, the ability of SNX1.3 to impact neuregulin (NRG1) was also tested and hepatic growth factor (HGF)-induced migration. NRG is the ligand for HER3 and HER4, and HGF the ligand for the c-Met receptor, both of which are receptor tyrosine kinases. In addition, soluble hyaluronic acid (HA)-induced migration, the ligand for CD44, was also tested [a non-kinase membrane receptor that induces migration (Louderbough, Lopez, and Schroeder 2010)]. […] Note that all receptors undergo endocytosis, with the RTKs primarily undergoing clathrin-dependent endocytosis, while CD44 endocytosis is clathrin-independent (Dutta and Donaldson 2015).

The test system of a further data set is MDA-MB-468 cells. Format: cell-based, human. The note with it: MDA-MB-468, 3 days, MTT assay. On the procedure:
A. Peptide sequence alignment of modified and stabilized peptides (−) indicates conserved residues, (/) indicates a deleted residue. Modified residues used for staples are (S)-2-(((9H-flouren-9-yl) methoxy) caronylamino)-2-methyl-hept-6-enoic acid (5) and (R)-2-(((9H-flouren-9-yl) methoxy) caronylamino)-2-methyl-dec-9-enoic acid (8). PTD4=Protein Transduction Domain. Ac=acetylation of 5′ end and NH2=amidation of 3′ end. B. MDA-MB-468 cells were treated with 10 μM of the indicated peptide for 3 days. Cell viability was measured using an MTT assay. Vehicle control represents 100%. C. A predicted peptide structure of SNX1.3 was generated using SWISSMODEL with negative (blue) and positive (red) residues highlighted.
as §1
Predicted peptide structure including negatively (blue) and positively (red) charged residues was used to guide the modifications (FIG. 2C).
In general terms: Tetrazolium assays rely on reduction of a dye to a coloured formazan, in cell work by metabolically active cells.

In data set [2] the test system is WAP-TGFα tumors. Briefly: Histology and protein lysate analysis of treated WAP-TGFα tumors. It is filed as in vivo, mouse. From the text: Mice were bred continuously to induce transgene expression and palpated weekly for tumor formation. […] A. Changes in tumor size from entry into study until end of study are shown for each individual tumor, (*) indicate tumors that entered the study at size greater than 500 mm^3, all other tumors entered the study at ˜100 mm^3. B. a Kaplan-Meier survival curve was generated showing when mice were sacrificed by either reaching tumor burden (2000 mm^3) or the end of the study (p=0.0002). C. Upon sacrifice tumors were harvested and fixed in 10% formalin and embedded in paraffin. Slides were stained with hematoxylin and eosin and imaged at 20×. D. Protein lysates were generated from tumors upon sacrifice and probed for the indicated proteins.
(§3) A. Tumors (n=6 each treatment) from WAP-TGF mice as described in FIG. 1 were embedded and analyzed by NanoString. […] C. Tumors were dissected, lysed, and analyzed for apoptosis by probing for cleaved PARP and PDL1 expression.
At the end of the study, mice were sacrificed and tissues were collected and fixed in 10% buffered formalin or homogenized in tissue lysis buffer. Tissues were sectioned and evaluated for changes to tissue morphology in response to peptide treatment (FIG. 3C). […] Representative tumors from the PARP-cleavage positive (cSNX1.3-treated) and negative (cPTD4-treated) are shown (FIG. 3C).
(§4) Due to the increased leukocyte infiltration identified by histology of cSNX1.3-treated WAP-TGFα mice, NanoString analysis was performed using a panel that identifies alterations in immune regulators through localized analysis of transcript expression (PanCancer IO 360 Panel). […] These include several immune/inflammatory genes (such as CD2, TLR, CD28, H2-M3, Ly6C1, cytokines, and chemokines) as well as genes that could impact the metastatic potential of the microenvironment (including collagen 11A1 and MM P12). NanoString bioinformatics analysis further identified that these changes could be due to an increase in Cytotoxic T lymphocytes (CTLs) in cSNX1.3-treated samples compared to PTD4 (FIG. 8B). […] Therefore, tumor lysates were prepared and evaluated for apoptosis and a loss of the negative immune checkpoint receptor PDL1 (FIG. 8C). […] These changes could indicate an alteration from an immune-suppressive to an immune-surveilling microenvironment.

The subject of data set [3] is WAP-TGFα tumors. The experiment in a line: NanoString analysis of WAP-TGFα tumors (PanCancer IO 360 Panel). It is filed as in vivo, mouse. The note with it: WAP-TGFα tumors, found by NanoString. On the procedure:
as §3
C. WAP-TGFα tumors treated with either SNX1.3 or cPTD4 were analyzed for NK cells using an anti-NKp46 antibody. Inset is 20×.
as §4

Data set [4] has as its system BT20 cells. Briefly: 2D cell migration into an artificial wound, BT20 cells. It is filed as cell-based, human. On the procedure:
Area migrated was measured with ImageJ.
as §2

As for `CNC(=O)CN1CCC(Oc2cc3c(Nc4cccc(Cl)c4F)ncnc3cc2OC)CC1` [Sapitinib, reference compound], in the data set with MCF10A cells, the “impact on normal immortalized cells” value was “more effective at inhibiting cell growth in normal cells than in cancer cells”. The “inhibition of cell survival, compared with Sapitinib” value is recorded as “inhibited cell survival” with BT20 cells [1] (BT20, 3 days, MTT assay) and “inhibited cell survival” in the data set on MDA-MB-468 cells.
Consider “YARAAARQARAKNHVIKYLETLLYSQQQLAKYWEAFL [SNX1.3]”, for which the “growth of BT20 cells” value with BT20 cells [1] (first screen of SNX1-based peptides) was “inhibits the growth”. In addition, the “impact on viability via MTT” value in the data set on BT20 cells [1] (in less than 24 hours, data not shown) is given as “no impact on viability”. The “infiltration of cytotoxic T lymphocytes and neutrophils in tumors” value in the data set with WAP-TGFα tumors [2] (compared to control mice) is given as “increased infiltration”. The “overall PDL1 expression in tumors” value with WAP-TGFα tumors [2] (tumor lysates) was “decrease”. Also, the “secretion of IL33” value in the data set with WAP-TGFα tumors [3] is reported as “induced”. Moreover, the “soluble hyaluronic acid (HA)-induced migration (CD44)” value with BT20 cells [4] (BT20, 12 hours, ligand for CD44) is listed as “did not block”. Further, in the data set on BT20 cells [4] (BT20, 12 hours, ligand for HER3 and HER4), the “neuregulin (NRG1) induced migration” value was “inhibited migration”. Further, the “hepatic growth factor (HGF)-induced migration” value with BT20 cells [4] (BT20, 12 hours, ligand for c-Met receptor) was “inhibited migration”. Also, the EGF induced migration entry with BT20 cells [4] (BT20 on plastic, 12 hours) is reported as “no migration was observed”.
